Structures are written as SMILES. Entries after “also recorded” stand apart in the source; their conditions may differ. Where two headings read alike, the source gives them in different places. Numbered stars: 1 amine (or outer) side, 2 acyl side, 3 side chain; on linkers, the order of the positions; unused ones are H or OH. Bridge positions count the residues as written; N and C are the ends. Square brackets hold non-standard residues; d marks the D form. Peptide text beside a SMILES is read from it. * marks the point of attachment. Benzothiophen(2-yl)carbonyl = O=C(c1cc2ccccc2s1)*; X2 = CC[C@H](C)[C@@H](N[*:1])[C@@H](O)CC(=O)[*:2]; NMeY = CN[C@@H](Cc1ccc(O)cc1)C(=O)O; dNMeL = CN[C@H](CC(C)C)C(=O)O; Tos = Cc1ccc(S(=O)(=O)*)cc1; Hiv = CC(C)[C@H](O)C(=O)O; Aib = CC(C)(N)C(=O)O

For data set [1], the system named is C-reactive protein. Description: C-reactive protein tests in COVID-19 patients treated with PLD. It counts as in vivo, human. As for the experimental part: The effect of PLD on inflammatory cytokines was also measured for patients 5, 7 and 9 and the results of C-reactive protein tests are shown in FIG. 36.
The test system of data set [2] is Huh-7 cells.
Data set [3] deals with HCoV-229E. Format: cell-based.
The test system of data set [4] is SARS-CoV-2 (COVID-19). Description: Study APLICOV-PC (NCT04382066): efficacy in patients hospitalised for COVID-19. Format: in vivo, human.
Data set [5] relates to HIV-1 (recombinant virus NL4.3 Luc). As to the kind of experiment: microbe, parasite or virus in culture. Format: cell-based.
Data set [6] can be described thus: in vitro. The note with it: human.
Data set [7] deals with MT-2 cells.
The test system of data set [8] is HIV-1 (recombinant virus NL4.3 Luc). As to the kind of experiment: microbe, parasite or virus in culture. Format: cell-based. The note with it: for IC50: Human immunodeficiency virus 1, PBMC.
The mark [9] stands for this setting: Huh-7, 50 nM, 5 nM and 0.5 nM, 24 hpi.
[10] abbreviates: interim results, 8 evaluable patients.

`CC[C@H](C)[C@H]1NC(=O)[C@@H](NC(=O)C(CC(C)C)N(C)C(=O)[C@@H]2CCCN2C(=O)C(C)=O)[C@@H](C)OC(=O)[C@H](Cc2ccc(OC)cc2)N(C)C(=O)[C@@H]2CCCN2C(=O)[C@H](CC(C)C)NC(=O)[C@@H](C)C(=O)[C@H](C(C)C)OC(=O)C[C@@H]1O` (stereo in doubt) [PLD, (−)-(3S,6R,7S,10R,11S,15S,17S,20S,25aS)-11-hydroxy-3-(4-methoxybenzyl)-2,6,17-trimethyl-15-(1-methylethyl)-7-[[(2R)-4-methyl-2-[methyl[[(2S)-1-(2-oxopropanoyl)pyrrolidin-2-yl]carbonyl]amino]pentanoyl]amino]-10-[(1S)-1-methylpropyl]-20-(2-methylpropyl)tetradecahydro-15H-pyrrolo[2,1-f]-[1,15,4,7,10,20]dioxatetrazacyclotricosine-1,4,8,13,16,18,21(17H)-heptone]: in data set [1] (patient 5 (PLD 1.5 mg×3)), the “Acute fall of C-reactive protein seen by day” value was at most 2 days. The “Acute fall of C-reactive protein seen by day” value in data set [1] (patients 7 and 9 (PLD 2.0 mg×3)) is at most 3 days. For the same molecule, the “Cell growth / viability (fluorescence images)” value (from here on “Cell growth / viability”) in data set [2] (setting [9]) is listed as “cells remain viable at all concentrations”. The “Antiviral activity (fluorescence images)” value in data set [3] is reported as “remarkable antiviral properties are seen across all concentrations”. Further, the “Clinical course (single patient)” value in data set [4] (PLD 1.5 mg×3, interim results) is recorded as “Acute clinical improvement; also recorded: lack of improvement; also recorded: prevented clinical deterioration; also recorded: Major clinical improvement”. For the same molecule, in data set [4] (PLD 2.0 mg×3, interim results), the “Clinical course (single patient)” value is “major clinical improvement” and the “PCR COVID 19 test at day 7 (single patient)” value is “still positive”. Further, the “Removal of viral burden” value in data set [4] (ad hoc analysis of the first cohort at 1.5 mg and 2 mg) is given as “complete removal of viral burden was noted in the vast majority of patients”. Moreover, in data set [4] (setting [10]), the “Evaluable patients requiring post PLD specific anti COVID 19 therapy” value is 2 out of 8; the “Evaluable patients with SARS-CoV-2 PCR conversion to negative” value was 6 out of 8; the “Evaluable patients with disease control and major clinical improvements” value was 6 out of 8. Besides, in data set [4] (interim results, 9 patients), the Deaths on study result is on record as “no deaths on study” and the “Need for mechanical ventilation or ICU admission” value is “none of the patients required mechanical ventilation or ICU admission”.
Take `CC[C@H](C)[C@H]1NC(=O)[C@@H](NC(=O)[C@@H](CC(C)C)NC)[C@@H](C)OC(=O)[C@H](Cc2ccc(OC)cc2)N(C)C(=O)[C@@H]2CCCN2C(=O)[C@H](CC(C)C)NC(=O)C(C)(C)NC(=O)C[C@@H]1O` [Compound 3] (H-[dNMeL]T[X2][Aib]LP[NMeY](Me); ester 2-C): the IC50 stood at 1390 nM in data set [5] (Human immunodeficiency virus 1, MT2, read-out: IC50 (antiviral activity), MT-2 cells infected with NL4.3 Luc, 48 hours) and 160 nM in data set [8] (read-out: IC50 (antiviral activity), preactivated PBMCs infected with NL4.3 Luc, 48 hours). For the same molecule, in data set [6], the CC50 was around 27000 nM. The “Toxic concentrations not reached at” value in data set [7] is above 57.3 µM.
On to `CC[C@H](C)[C@H]1NC(=O)[C@@H](NC(=O)[C@H](CC(C)C)N(C)C(=O)[C@@H]2CCCN2C(=O)C(C)=O)[C@@H](C)OC(=O)[C@H](Cc2ccc(OC)cc2)N(C)C(=O)[C@@H]2CCCN2C(=O)[C@H](CC(C)C)NC(=O)[C@@H](C)C(=O)[C@H](C(C)C)OC(=O)C[C@@H]1O` [Compound 8], for which the Antiviral activity result in data set [5] (MT-2 cells) and in data set [8] (PBMCs) was “showed also antiviral activity” throughout. Besides, in data set [5] (MT-2 cells and PBMCs, not told apart), the “IC50 value, fold lower than the specific concentration of 10 μM” value is 100 fold. Further, the “Specificity of antiviral activity” value is recorded as “specific” in data set [5] (at 10 μM, MT-2 cells and PBMCs, not told apart); “non-specific” in data set [5] (at 50 μM, MT-2 cells and PBMCs, not told apart).
On to `CC[C@H](C)[C@H]1NC(=O)[C@@H](NC(=O)[C@@H](CC(C)C)N(C)C(=O)[C@@H]2CCCN2C(=O)[C@H](C)NC(=O)[C@@H](Cc2ccccc2)NC(=O)OC(C)(C)C)[C@@H](C)OC(=O)[C@H](Cc2ccc(OC)cc2)N(C)C(=O)[C@@H]2CCCN2C(=O)[C@H](CC(C)C)NC(=O)[C@@H](C)C(=O)[C@H](C(C)C)OC(=O)C[C@@H]1O` [Compound 9], for which the “Cell growth / viability” value in data set [2] is given as “cells remain viable at all concentrations”. For the same molecule, in data set [3], the “Antiviral activity (fluorescence images)” value is reported as “remarkable antiviral properties are seen across all concentrations”. Besides, in data set [8] (PBMCs, read-out: IC50), the half-inhibitory concentration (IC50) came out at 0.63 nM.
In the case of `CC[C@H](C)[C@H]1NC(=O)[C@@H](NC(=O)[C@@H](CC(C)C)N(C)C(=O)c2cc3ccccc3s2)[C@@H](C)OC(=O)[C@H](Cc2ccc(OC)cc2)N(C)C(=O)[C@@H]2CCCN2C(=O)[C@H](CC(C)C)NC(=O)[C@H](C(C)C)OC(=O)C[C@@H]1O` [Compound 10] ({Benzothiophen(2-yl)carbonyl}-[dNMeL]T[X2][Hiv]LP[NMeY](Me); ester 2-C), the “Cell growth / viability” value in data set [2] (setting [9]) was “cells remain viable at all concentrations”. Moreover, the “Antiviral activity (fluorescence images)” value in data set [3] is listed as “remarkable antiviral properties are seen across all concentrations”. Moreover, the IC50 in data set [8] was found to be 0.86 nM.
In the case of `CC[C@H](C)[C@H]1NC(=O)[C@@H](NC(=O)[C@@H](CC(C)C)N(C)S(=O)(=O)c2ccc(C)cc2)[C@@H](C)OC(=O)[C@H](Cc2ccc(OC)cc2)N(C)C(=O)[C@@H]2CCCN2C(=O)[C@H](CC(C)C)NC(=O)[C@H](C(C)C)OC(=O)C[C@@H]1O` [Compound 11] (Tos-[dNMeL]T[X2][Hiv]LP[NMeY](Me); ester 2-C), the IC50 in data set [8] was found to be 69.4 nM.

The IC50 is the concentration needed to halve the response being measured.

For the origin of these results see patent publication US20230158102A1 (priority 2020, published 2023).
